Assay results: patent publication US20040005623A1, “Method of determining tumor sensitivities to therapeutic drugs” (priority 2002, published 2004)

Columns and labels:
wild-type KIT [1] = target: T1, wild-type KIT (Homo sapiens, UniProt P10721); conditions: has been reported; cited from earlier work
Target sequence in this assay (P10721 26-976, species assumed): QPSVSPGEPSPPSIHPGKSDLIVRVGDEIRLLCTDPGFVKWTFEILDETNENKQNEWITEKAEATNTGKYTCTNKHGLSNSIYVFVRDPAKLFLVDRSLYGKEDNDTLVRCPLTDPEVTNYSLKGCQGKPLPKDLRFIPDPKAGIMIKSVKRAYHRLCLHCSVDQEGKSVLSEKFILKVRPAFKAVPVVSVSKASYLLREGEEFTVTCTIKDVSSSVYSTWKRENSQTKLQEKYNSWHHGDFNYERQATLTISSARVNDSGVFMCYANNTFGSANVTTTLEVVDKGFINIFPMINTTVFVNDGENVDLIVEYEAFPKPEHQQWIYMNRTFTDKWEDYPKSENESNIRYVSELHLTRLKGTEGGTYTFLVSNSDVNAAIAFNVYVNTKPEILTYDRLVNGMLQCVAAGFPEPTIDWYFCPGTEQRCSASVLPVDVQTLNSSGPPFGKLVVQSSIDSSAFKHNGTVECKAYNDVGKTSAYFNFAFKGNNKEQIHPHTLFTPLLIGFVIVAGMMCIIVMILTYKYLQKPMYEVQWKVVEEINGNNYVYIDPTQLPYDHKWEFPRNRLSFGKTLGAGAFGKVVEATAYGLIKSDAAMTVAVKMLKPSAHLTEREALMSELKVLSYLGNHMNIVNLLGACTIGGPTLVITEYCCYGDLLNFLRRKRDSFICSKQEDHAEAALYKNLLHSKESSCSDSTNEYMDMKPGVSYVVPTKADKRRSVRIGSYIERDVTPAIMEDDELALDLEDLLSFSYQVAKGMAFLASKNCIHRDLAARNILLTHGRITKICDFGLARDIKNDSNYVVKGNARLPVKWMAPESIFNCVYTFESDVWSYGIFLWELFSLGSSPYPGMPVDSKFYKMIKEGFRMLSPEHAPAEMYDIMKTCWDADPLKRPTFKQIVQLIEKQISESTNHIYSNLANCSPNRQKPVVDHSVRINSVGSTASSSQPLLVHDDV

[2] = target: T2, KIT Val560Gly juxtamembrane regulatory type mutant (Homo sapiens, UniProt P10721, V560G); assay: SCF-independent constitutive phosphorylation of Val560Gly mutant KIT expressed in COS cells; format: cell-based; conditions: inhibitor at 0.1 to 1 μM, FIG. 1 lanes 6-7
T2 construct: expressed in transfected cells; host or cells: COS cells
T2 sequence (P10721 26-976 V560G): as the sequence (P10721 26-976, species assumed) above, with V535G counted along it
From the text: (§1) Two subclones of the human mast cell leukemia line HMC1 were used to determine if the wild type and mutant KIT enzymes were able to interact with 2 drug compounds, […] and SU9529. Set forth as SEQ ID NO:1 is a nucleotide sequence for the wild type KIT enzyme (amino acid sequence is set forth as SEQ ID NO:2). One subclone, HMC1.1, expressed a valine to glycine substitution in codon 560 (Val560Gly) of the KIT intracellular juxtamembrane region. The other, HMC1.2, expressed the Val560Gly mutation and a second substitution, aspartate to valine in codon 816 (Asp816Val) in the kinase enzymatic pocket. […] For additional study of wild type and specific mutant forms of KIT, COS cells were used for transient expression of human wild-type and mutated c-KIT complementary DNAs, as described previously by Ma et al., “Inhibition of spontaneous receptor phosphorylation by residues in putatitive α-helix in the KIT intracellular juxtamembrane region,” J. Biol. Chem., 274:13399-13402 (1999). ST1571 is a commercially available drug manufactured by Novartis and developed as an inhibitor of the c-abl gene product. ST1571 has been reported to inhibit wild-type KIT and KIT expressed by HMC1. The other compound, SU9529, is manufactured by SUGEN and has not yet been made commercially available, although it has been published. […]

HMC1 line = conditions: at 1 μM; cited from earlier work
wild-type KIT [3] = target: T1, wild-type KIT; assay: SCF-induced phosphorylation of wild-type KIT transiently expressed in COS cells (antiphosphotyrosine blot); format: cell-based; set-up: expressed in transfected cells; host or cells: COS cells; conditions: inhibitor at 0.1 to 1 μM, 1 hour, FIG. 1 lanes 3-4
From the text: as §1
Target sequence in this assay (P10721 26-976): as the sequence (P10721 26-976, species assumed) above

KIT expressed by HMC1 = KIT expressed by HMC1 (Homo sapiens, UniProt P10721, V560G); conditions: has been reported; cited from earlier work
Sequence of KIT expressed by HMC1 (P10721 26-976 V560G): as the sequence (P10721 26-976, species assumed) above, with V535G counted along it

- inhibition of SCF-independent constitutive phosphorylation of Val560Gly KIT [2]: inhibit
- inhibition of SCF-induced phosphorylation of wild-type KIT (wild-type KIT [3]): prevent the phosphorylation
SMILES: Cc1ccc(NC(=O)c2ccc(CN3CCN(C)CC3)cc2)cc1Nc1nccc(-c2cccnc2)n1 [ST1571]
- reported inhibition of wild-type KIT (wild-type KIT [1]): inhibit
- previously reported ability to kill an HMC1 line (HMC1 line): kill
- reported inhibition of KIT expressed by HMC1 (KIT expressed by HMC1): inhibit
